Ends that are not written are not given here. HPMA copolymer = HPMA copolymer made by RAFT copolymerization of HPMA with N-(3-aminopropyl)methacrylamide (APMA), bearing maleimide groups for grafting
Columns and labels:
4T1 cells [1] = experiment: Transwell invasion assay (matrigel); assay type: cell-based, murine
Experimental: Wound healing assay and transwell migration and invasion assay were conducted to investigate in vitro metastasis inhibition. For the wound healing assay, 4T1 cells (5 × 10^5 cells) were cultured in 12-well plates (NEST Biotechnology) as monolayer with more than 90% coverage. Sterile 200 μL pipette tips were used to scrape off the cells, generating a linear cell-free area in the middle of the well. Subsequently, cells were washed by PBS to remove debris. In the stimulated group, 4T1 cells were stimulated with CXCL12 (100 ng/mL) for 1 h. […] In the P-BS-CM1 → P-CM2 group, 4T1 cells underwent consecutive treatment with P-BS-CM1 for 1 h and P-CM2 for 1 h before CXCL12 stimulation (1 mg/mL BS equivalence, CM1:CM2, 1:1 mol%). Images of the wound were recorded by a microscope at 0 h and 24 h after CXCL12 stimulation, and the wound healing rate was calculated using Image J software. For the transwell migration and invasion assay, 4T1 cells (5 × 10^5 cells) were seeded in the non-coated upper chamber (Millipore, 8 μm) or GelNest™ matrigel (NEST Biotechnology) pre-coated upper chamber. The cells underwent the same treatment conditions as wound healing assay. After 24 h of treatment, migrated or invaded cells across the membrane were stained with 0.1% crystal violet, imaged by microscope, and quantified by absorbance at 570 nm after dissolution.

4T1 cells [2] = experiment: Label-free proteomics analysis; assay type: cell-based, murine; conditions: Fig. 4f proteomics heatmap value
Experimental: For proteomics analysis, 4T1 cells (5 × 10^5 cells) were seeded in 12-well plates (NEST Biotechnology). […] Cell samples were submitted for label-free proteomics analysis (Shanghai Omics-space Biotech Co., Ltd., Shanghai, China). The analysis included protein extraction, protein digestion, LC − MS/MS detection (Thermo Scientific Orbitrap-Fusion Lumos), protein quantitation and identification (MaxQuant 1.5.5.1), and bioinformatics analysis.

[3] = tested on: HIF-1α in orthotopic 4T1 tumors; experiment: Intratumoral HIF-1α expression by flow cytometry; assay type: in vivo, female BALB/c mice
Experimental: (§1) 4T1 cells (1 × 10^6 cells) were injected into the third mammary fat pad of female BALB/c mice (6–8-week). […] On day 28, blood samples, lungs and tumors were harvested.
For evaluating the hypoxic conditions in tumor tissues, immunofluorescent staining and flow cytometry analysis of HIF-1α were conducted. For immunofluorescent staining of HIF-1α, tumor slices were sequentially stained with anti-HIF-1 alpha recombinant rabbit monoclonal antibody (1:500 dilution) and goat anti-rabbit IgG H&L Alexa Fluor® 647 (1:1000 dilution). For flow cytometry analysis of HIF-1α, single-cell suspensions of tumor tissues were sequentially stained with anti-HIF1 alpha rabbit polyclonal antibody (1:500 dilution) and goat anti-rabbit IgG H&L Alexa Fluor® 647 (1:1000 dilution) before analysis.

[4] = tested on: pulmonary CD11b+Gr1+ BMDCs; experiment: Pulmonary BMDCs (CD11b+Gr1+) by flow cytometry; assay type: in vivo, female BALB/c mice
Experimental: as §1
(§2) To explore the “seed-soil” crosstalk, the serum, intra-tumoral, and pulmonary concentration of LOX was determined using enzyme-linked immunosorbent assay kits (CSB-EL013041MO, CUSABIO, https://www.cusabio.com/) according to the manufacturer’s instructions. The serum, intra-tumoral, and pulmonary concentration of TGF-β was determined using mouse TGF-β ELISA Kit (Cat No.: HB1328-Mu). The formation of PMN was investigated through lung slices subjected to immunofluorescent staining of LOX, E-cadherin, and S100A8. For immunofluorescent staining of E-cadherin, Lung slices were stained with CoraLite® Plus 647 anti-mouse CD324 (E-cadherin, 1:300 dilution). For immunofluorescent staining of LOX and S100A8, Lung slices were separately stained with anti-LOX recombinant rabbit monoclonal antibody (1:500 dilution) or S100-A8 / MRP8 rabbit pAb (1:500 dilution), followed by staining with goat anti-rabbit IgG H&L Alexa Fluor® 647 (1:1000 dilution), respectively. Single-cell suspensions of lungs were analyzed using flow cytometry to assess BMDC (CD11b^+Gr1^+) with PE anti-mouse/human CD11b antibody (1:300 dilution) and FITC anti-mouse Ly-6G/Ly-6C (Gr-1) antibody (1:300 dilution). Chemokine concentrations in lungs were determined using a mouse CXCL12 ELISA kit.

CXCL12 in lungs = experiment: Pulmonary CXCL12 ELISA; assay type: in vivo, female BALB/c mice
Experimental: as §1, §2

[5] = Hydrodynamic size / size distribution by dynamic light scattering; assay type: physicochemical; conditions: Malvern Zetasizer Nano ZS90, mean ± SD
Experimental: The average molecular weight (Mw) and polydispersity (PDI) of the HPMA copolymer conjugates were determined by gel permeation chromatography (GPC) on an AKTA purifier equipment with a Superose 6 10/300 GL analytical column (GE Healthcare, USA) and a differential refraction detector (KNAUER, 2300, Germany). Hydrodynamic sizes and zeta potentials were determined using a Malvern Zetasizer Nano ZS90 equipment (Malvern Instruments Ltd, Malvern, UK). The contents of BS, CM1, and CM2 were determined using a bicinchoninic acid (BCA) protein assay. The PS concentration was determined by ultraviolet-visible (UV-Vis) spectroscopy at its characteristic absorbance peak (660 nm).
To investigate the coiled-coil assembly, varying CM1-to-CM2 ratios (3:1, 1:1, and 1:3) of P-BS-CM1 and P-CM2 were mixed in 10 mM PBS (pH 7.4) at 25 °C for 10 min. The total polymer concentration was kept constant at 10 mg/mL. Circular dichroism spectra, size distribution, and rheological properties of P-BS-CM1, P-CM2, and their mixture were measured. The surface morphology of P-BS-CM1 and the mixture (P-BS-CM1 + P-CM2) was observed using scanning electron microscopy. Additionally, for the FRET assay, CM1-to-CM2 equimolar of P-BS-CM1-Cy5 and P-CM2-Cy3 were mixed in 10 mM PBS (pH 7.4) at 25 °C for 10 min. Fluorescent spectra of P-BS-CM1-Cy5, P-CM2-Cy3, and the mixture (P-BS-CM1-Cy5+P-CM2-Cy3) were recorded at the Cy3 excitation wavelength of 550 nm.

[6] = i.v. days 7, 14, 21 (5 mg/kg BS equivalence; P-CM2 24 h later), analysis day 28, mouse 1 of 5
[7] = ELISA, i.v. days 7, 14, 21, analysis day 28, mouse 1 of 5

Substance	Invasion content (%) (4T1 cells [1]; replicate 1)	Invasion content (%) (4T1 cells [1]; replicate 2)	Invasion content (%) (4T1 cells [1]; replicate 3)	PKA C-alpha (4T1 cells [2]; replicate 1)	VDAC3 (4T1 cells [2]; replicate 1)	PKA C-alpha (4T1 cells [2]; replicate 2)	VDAC3 (4T1 cells [2]; replicate 2)	PKA C-alpha (4T1 cells [2]; replicate 3)	VDAC3 (4T1 cells [2]; replicate 3)	intratumoral HIF-1α expression, flow cytometry (Fig. 6c) [3, 6]	intratumoral HIF-1α expression, flow cytometry (Fig. 6c) ([3]; same, mouse 2 of 5)	intratumoral HIF-1α expression, flow cytometry (Fig. 6c) ([3]; same, mouse 3 of 5)	intratumoral HIF-1α expression, flow cytometry (Fig. 6c) ([3]; same, mouse 4 of 5)	intratumoral HIF-1α expression, flow cytometry (Fig. 6c) ([3]; same, mouse 5 of 5)	Pulmonary CD11b+Gr1+ BMDCs (%) [4, 6]	Pulmonary CD11b+Gr1+ BMDCs (%) ([4]; same, mouse 2 of 5)	Pulmonary CD11b+Gr1+ BMDCs (%) ([4]; same, mouse 3 of 5)	Pulmonary CD11b+Gr1+ BMDCs (%) ([4]; same, mouse 4 of 5)	Pulmonary CD11b+Gr1+ BMDCs (%) ([4]; same, mouse 5 of 5)	pulmonary CXCL12 (Fig. 6g) (CXCL12 in lungs; [7])	further results
LGASWHRPDKCCLGYQKRPLPA [Free BS]	100.41%	88.2%	97.02%	-0.6179	0.5272	0.3837	-0.8599	-0.4642	0.1524	1107.6	915.453	924.512	898.316	847.852	31.8%	39.87%	35.6%	41%	39.4%	440	pulmonary CXCL12 (Fig. 6g) (CXCL12 in lungs; same, mouse 2 of 5): 579; pulmonary CXCL12 (Fig. 6g) (CXCL12 in lungs; same, mouse 3 of 5): 367; pulmonary CXCL12 (Fig. 6g) (CXCL12 in lungs; same, mouse 4 of 5): 552; pulmonary CXCL12 (Fig. 6g) (CXCL12 in lungs; same, mouse 5 of 5): 532
P-BS: HPMA copolymer-BS conjugate, ~6 BS grafts per polymer (LGASWHRPDKCCLGYQKRPLPA; not fully specified (residues 11, 12); also: about 6 peptides grafted on HPMA copolymer via cysteine-maleimide thioether links)	61.3%	50.16%	42.1%	-1.375	-0.0121	0.3768	1.023	0.8503	1.779	747.043	870.276	640.882	534.456	521.955	25.1%	26.4%	34.2%	28.9%	29.8%	258	Size [5]: 15.7±0.8 nm; pulmonary CXCL12 (Fig. 6g) (CXCL12 in lungs; same, mouse 2 of 5): 221; pulmonary CXCL12 (Fig. 6g) (CXCL12 in lungs; same, mouse 3 of 5): 368; pulmonary CXCL12 (Fig. 6g) (CXCL12 in lungs; same, mouse 4 of 5): 245; pulmonary CXCL12 (Fig. 6g) (CXCL12 in lungs; same, mouse 5 of 5): 267
P-CM2-Cy3: Cy3-labeled P-CM2 (C(HPMA copolymer)YGGEVSALEKEVSALEKKNSALEKEVSALEKEVSALEK; also: Cy3 label on conjugate, position not given here)	–	–	–	–	–	–	–	–	–	–	–	–	–	–	–	–	–	–	–	–	Size [5]: 20.4±0.5 nm
